Experimental data reported in patent US11051515B2, “3-acyl-benzamides and their use as herbicides” (Bayer Aktiengesellschaft, priority 2017, dated 2021).

Assays:
[1] = tested on: MATIN; test: Post-emergence action against MATIN; type: in vivo, Matricaria inodora; conditions: post-emergence, dosage 80 g/ha, visual assessment about 3 weeks after treatment vs untreated controls
Summary of the method: (§1)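 Weeds grown in sandy loam in greenhouse, treated at one-leaf stage (2–3 weeks after sowing) with WP or EC formulations sprayed as aqueous suspension/emulsion at 600 to […] water with 0.2% wetting agent. Visual rating after about 3 weeks versus untreated controls, as % herbicidal action (100% = plants dead, 0% = like control).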

[2] = tested on: STEME; test: Post-emergence action against STEME; type: in vivo, Stellaria media; conditions: post-emergence, dosage 80 g/ha
Summary of the method: as §1

[3] = tested on: ABUTH; test: Pre-emergence action against ABUTH; type: in vivo, Abutilon theophrasti; conditions: pre-emergence, dosage 320 g/ha, scored visually after 3 weeks vs untreated controls
Summary of the method: (§2)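 Seeds sown in sandy loam in wood-fiber pots and covered with soil. Greenhouse growth; visual damage scored after 3 weeks versus untreated controls (100% = dead, 0% = like control).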

[4] = tested on: AMARE; test: Pre-emergence action against AMARE; type: in vivo, Amaranthus retroflexus; conditions: pre-emergence, dosage 320 g/ha, scored visually after 3 weeks vs untreated controls
Summary of the method: as §2

[5] = tested on: MATIN; test: Pre-emergence action against MATIN; type: in vivo, Matricaria inodora; conditions: Dosage 320 g/ha, pre-emergence
Summary of the method: as §2

[6] = tested on: ALOMY; test: Pre-emergence action against ALOMY; type: in vivo, Alopecurus myosuroides; conditions: dosage 320 g/ha, pre-emergence, scored visually after 3 weeks vs untreated controls, 100% = plants have died, 0% = like control plants
Summary of the method: as §2

[7] = tested on: VERPE; test: Pre-emergence action against VERPE; type: in vivo, Veronica persica; conditions: Dosage 320 g/ha, pre-emergence
Summary of the method: as §2

[8] = tested on: STEME; test: Pre-emergence action against STEME; type: in vivo, Stellaria media; conditions: Dosage 320 g/ha, pre-emergence
Summary of the method: as §2

[9] = tested on: ECHCG; test: Pre-emergence action against ECHCG; type: in vivo, Echinochloa crus-galli; conditions: pre-emergence, dosage 320 g/ha, scored visually after 3 weeks vs untreated controls
Summary of the method: as §2

[10] = tested on: SETVI; test: Post-emergence action against SETVI; type: in vivo, Setaria viridis; conditions: post-emergence, dosage 80 g/ha, visual assessment about 3 weeks after treatment vs untreated controls
Summary of the method: as §1

[11] = tested on: ECHCG; test: Post-emergence action against ECHCG; type: in vivo, Echinochloa crus-galli; conditions: post-emergence, dosage 80 g/ha, visual assessment about 3 weeks after treatment vs untreated controls
Summary of the method: as §1

[12] = tested on: VIOTR; test: Pre-emergence action against VIOTR; type: in vivo, Viola tricolor; conditions: Dosage 320 g/ha, pre-emergence
Summary of the method: as §2

[13] = tested on: PHBPU; test: Post-emergence action against PHBPU; type: in vivo, Pharbitis purpurea; conditions: post-emergence, dosage 80 g/ha
Summary of the method: as §1

[14] = tested on: SETVI; test: Pre-emergence action against SETVI; type: in vivo, Setaria viridis; conditions: pre-emergence, dosage 320 g/ha, scored visually after 3 weeks vs untreated controls
Summary of the method: as §2

[15] = tested on: CYPES; test: Post-emergence action against CYPES; type: in vivo, Cyperus esculentus; conditions: post-emergence, dosage 80 g/ha, visual assessment about 3 weeks after treatment vs untreated controls
Description: Seeds of monocotyledonous and dicotyledonous weed and crop plants are laid out in sandy loam soil in wood-fiber pots, covered with soil and cultivated in a greenhouse under good growth conditions. 2 to 3 weeks after sowing, the test plants are treated at the one-leaf stage. The compounds of the invention, formulated in the form of wettable powders (WP) or as emulsion concentrates (EC), are then sprayed onto the green parts of the plants in the form of an aqueous suspension or emulsion at a water application rate equating to […], with addition of 0.2% wetting agent. After the test plants have been left to stand in the greenhouse under optimal growth conditions for about 3 weeks, the action of the preparations is assessed visually in comparison to untreated controls (herbicidal action in percent (%): 100% activity=the plants have died, 0% activity=like control plants). […] At the same time, inventive compounds leave Gramineae crops such as barley, wheat, rye, millet/Sorghum, corn or rice virtually undamaged when applied post-emergence, even at high active ingredient dosages. In addition, some substances are also harmless to dicotyledonous crops such as soya, cotton, oilseed rape, sugar beet or potatoes. Some of the compounds according to the invention have high selectivity and are therefore suitable for controlling unwanted vegetation in agricultural crops by the post-emergence method. The data of Tables B18 to B34 below illustrate, in an exemplary manner, the […] herbicidal action of the compounds according to the invention, the herbicidal activity being stated in percent.

[16] = tested on: VIOTR; test: Post-emergence action against VIOTR; type: in vivo, Viola tricolor; conditions: post-emergence, dosage 80 g/ha
Summary of the method: as §1

[17] = tested on: CYPES; test: Pre-emergence action against CYPES; type: in vivo, Cyperus esculentus; conditions: pre-emergence, dosage 320 g/ha, scored visually after 3 weeks vs untreated controls
Text: (§3) Seeds of monocotyledonous and dicotyledonous weed plants and crop plants are laid out in sandy loam soil in wood-fiber pots and covered with soil. The compounds of the invention, formulated in the form of wettable powders (WP) or as emulsion concentrates (EC), are then applied to the surface of the covering soil in the form of an aqueous suspension or emulsion at a water application rate equating to […], with addition of 0.2% wetting agent. After the treatment, the pots are placed in a greenhouse and kept under good growth conditions for the trial plants. The damage to the test plants is scored visually after a test period of 3 weeks by comparison with untreated controls (herbicidal activity in percent (%): 100% activity=the plants have died, 0% activity=like control plants).

[18] = tested on: ABUTH; test: Post-emergence action against ABUTH; type: in vivo, Abutilon theophrasti; conditions: post-emergence, dosage 80 g/ha, visual assessment about 3 weeks after treatment vs untreated controls
Summary of the method: as §1

[19] = tested on: VERPE; test: Post-emergence action against VERPE; type: in vivo, Veronica persica; conditions: dosage 80 g/ha
Summary of the method: as §1

[20] = tested on: AMARE; test: Post-emergence action against AMARE; type: in vivo, Amaranthus retroflexus; conditions: post-emergence, dosage 80 g/ha, visual assessment about 3 weeks after treatment vs untreated controls
Summary of the method: as §1

[21] = tested on: PHBPU; test: Pre-emergence action against PHBPU; type: in vivo, Pharbitis purpurea; conditions: Dosage 320 g/ha, pre-emergence
Text: as §3

[22] = tested on: AVEFA; test: Pre-emergence action against AVEFA; type: in vivo, Avena fatua; conditions: dosage 320 g/ha, scored visually after 3 weeks vs untreated controls
Text: as §3

| Structure (SMILES) | Post-emergence action against MATIN (herbicidal action in percent) [1] [%] | Post-emergence action against STEME [2] | Pre-emergence action against ABUTH (herbicidal activity) [3] [%] | Pre-emergence action against AMARE (herbicidal activity) [4] [%] | Pre-emergence action against MATIN [5] [%] | Pre-emergence action against ALOMY (herbicidal activity in percent) [6] [%] | Pre-emergence action against STEME [8] [%] | Pre-emergence action against ECHCG (herbicidal activity) [9] [%] | Post-emergence action against SETVI (herbicidal action in percent) [10] [%] | Post-emergence action against ECHCG (herbicidal action in percent) [11] [%] | Pre-emergence action against VIOTR [12] [%] | Post-emergence action against PHBPU [13] | SETVI (Table B8, pre-emergence herbicidal activity) [14] [%] | Post-emergence action against CYPES (herbicidal action in percent) [15] [%] | Post-emergence action against VIOTR [16] | Pre-emergence action against CYPES (herbicidal activity) [17] [%] | Post-emergence action against ABUTH (herbicidal action in percent) [18] [%] | Post-emergence action against AMARE (herbicidal action in percent) [20] [%] | Pre-emergence action against PHBPU [21] [%] | also measured |
| --- | --- | --- | --- | --- | --- | --- | --- | --- | --- | --- | --- | --- | --- | --- | --- | --- | --- | --- | --- | --- |
| CC(C)C(=O)c1c(Cl)ccc(C(=O)Nc2nnnn2C)c1Cl [1-280] |  |  |  |  |  |  |  |  |  |  |  |  |  |  |  |  |  |  |  | pest or weed control at 80 g/ha ([1]; Tripleurospermum inodorum, 504 h, read-out: Post-emergence action against MATIN (herbicidal action in percent)): 90%; pest or weed control at 80 g/ha ([2]; Stellaria media, 504 h): 100%; pest or weed control at 320 g/ha ([3]; Abutilon theophrasti, 504 h, read-out: Pre-emergence action against ABUTH (herbicidal activity)): 90%; pest or weed control at 320 g/ha ([4]; Amaranthus retroflexus, 504 h, read-out: Pre-emergence action against AMARE (herbicidal activity)): 100%; pest or weed control at 320 g/ha ([5]; Tripleurospermum inodorum, 504 h): 100%; pest or weed control at 320 g/ha ([6]; Alopecurus myosuroides, 504 h, read-out: Pre-emergence action against ALOMY (herbicidal activity in percent)): 90%; pest or weed control at 320 g/ha ([7]; Veronica persica, 504 h): 90%; pest or weed control at 320 g/ha ([8]; Stellaria media, 504 h): 90%; pest or weed control at 320 g/ha ([9]; Echinochloa crus-galli, 504 h, read-out: Pre-emergence action against ECHCG (herbicidal activity)): 100%; pest or weed control at 80 g/ha ([10]; Setaria viridis, 504 h, read-out: Post-emergence action against SETVI (herbicidal action in percent)): 80%; pest or weed control at 80 g/ha ([11]; Echinochloa crus-galli, 504 h, read-out: Post-emergence action against ECHCG (herbicidal action in percent)): 90%; pest or weed control at 320 g/ha ([12]; Viola tricolor, 504 h): 100%; pest or weed control at 80 g/ha ([13]; Ipomoea purpurea, 504 h): 80%; pest or weed control at 320 g/ha ([14]; Setaria viridis, 504 h, read-out: SETVI (Table B8, pre-emergence herbicidal activity)): 90%; pest or weed control at 80 g/ha ([15]; Cyperus esculentus, 504 h, read-out: Post-emergence action against CYPES (herbicidal action in percent)): 90%; pest or weed control at 80 g/ha ([16]; Viola tricolor, 504 h): 90%; pest or weed control at 320 g/ha ([17]; Cyperus esculentus, 504 h, read-out: Pre-emergence action against CYPES (herbicidal activity)): 100%; pest or weed control at 80 g/ha ([18]; Abutilon theophrasti, 504 h, read-out: Post-emergence action against ABUTH (herbicidal action in percent)): 80%; pest or weed control at 80 g/ha ([19]; Veronica persica, 504 h): 90%; pest or weed control at 80 g/ha ([20]; Amaranthus retroflexus, 504 h, read-out: Post-emergence action against AMARE (herbicidal action in percent)): 90% |
| CCCn1nnnc1NC(=O)c1ccc(C(F)(F)F)c(C(C)=O)c1C [3-14] | 100 | 100 | 100 | 100 | 100 | 90 | 100 | 100 | 100 | 100 | 100 | 90 | 100 | 90 | 100 | 80 | 90 | 100 | 90 | Pre-emergence action against VERPE [7]: 100%; Post-emergence action against VERPE [19]: 80 |
| CCCn1nnnc1NC(=O)c1ccc(I)c(C(C)=O)c1Cl [3-192] | 100 | 100 | 100 | 100 | 100 | 90 | 100 | 100 | 100 | 100 | 100 | 80 | 100 | 80 | 100 | 100 | 100 | 80 | 100 | Pre-emergence action against AVEFA (herbicidal activity) [22]: 90% |
